SMILES strings stand for the structures.

In this assay the target is Mitochondrial complex I; NADH oxidoreductase (Bos taurus, UniProt P25708+P52505). The experiment in a line: Inhibitory concentration against NADH oxidase. The class given is protein-complex assay.
Mitochondrial complex I; NADH oxidoreductase, sequence (P25708 21-464 limits assumed, other chains not shown): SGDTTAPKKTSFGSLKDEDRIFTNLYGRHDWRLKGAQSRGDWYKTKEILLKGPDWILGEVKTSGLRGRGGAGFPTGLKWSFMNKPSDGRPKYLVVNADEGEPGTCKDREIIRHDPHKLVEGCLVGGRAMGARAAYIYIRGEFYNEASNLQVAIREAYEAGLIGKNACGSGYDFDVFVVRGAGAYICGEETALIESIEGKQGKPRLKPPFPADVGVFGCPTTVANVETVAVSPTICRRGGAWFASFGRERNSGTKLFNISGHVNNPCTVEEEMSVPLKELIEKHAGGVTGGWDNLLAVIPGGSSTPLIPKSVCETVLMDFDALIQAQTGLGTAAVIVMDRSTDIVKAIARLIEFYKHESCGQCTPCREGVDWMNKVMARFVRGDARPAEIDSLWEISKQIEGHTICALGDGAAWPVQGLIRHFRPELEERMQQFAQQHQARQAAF
For `COc1cc2c(cc1OCc1ccccc1)CCN(C)C2Cc1ccccc1` (centres undefined), the IC50 is 2700 nM.
In the case of `COc1cc2c(cc1OCc1ccccc1)CCN(P(=O)(OC(C)C)OC(C)C)C2Cc1ccccc1` (centres undefined) it was 1690 nM.
In the case of `COc1cc2c(cc1OCc1ccccc1)CCN=C2Cc1ccccc1` it was 2910 nM; in that of `COc1cc2c(cc1OCc1ccccc1)CCNC2Cc1ccccc1` (centres undefined), 3880 nM.

As usually defined, the IC50 is the concentration that inhibits the measured activity by half.

Source of the values: ChEMBL document CHEMBL1133061, “Synthesis of N-diisopropyl phosphoryl benzyltetrahydroisoquinoline, a new class of mitochondrial complexes I and III inhibitors” (Bioorg Med Chem Lett, 2000).
